Like-named read-outs stand apart in the source and are kept apart here. Values belong to the compound of their own block, whether it stands above or below them.
What was measured:
[1] = 1H NMR stability of azine sample 1830-012 over time and in different deuterated solvents; assay type: physicochemical; conditions: 1830-012 oil after 3 days storage in −20° C. under argon, new sample measured directly in CDCl3
Method: ^1H NMR was employed to probe the stability of azine sample 1830-012 both in terms of time after preparation and in different deuterated solvents.
Additionally, a new sample from the oil obtained in sample 1830-012, in which the oil was prepared after 3 days storage in −20° C. under argon, was prepared and measured directly in CDCl3.
After 3 days, the contamination of the azine with PEH was equal to 9% (the ratio of PEH:Azine was 9:91). […] Thus, it is theorized that purification cannot be accomplished by column chromatography. […] First, EtOH (2.0 mL) was added to 300 mg of crude product 1830-012 and heated to reflux. During refluxing, ˜1.0 mL of EtOH evaporated. The mixture was then slowly cooled to room temperature and then cooled to 0° C. After 3 days at 0° C., no precipitate was observed. In a second attempt, cold EtOH (3.0 mL) was added to 600 mg of crude product 1830-012 and the suspension was stirred at 0° C. for 15 minutes. The white precipitate was filtered (m=131 mg) and washed with small amounts of cold EtOH (see FIG. 5).

[2] = pH stability studies at pH 9.2 and pH 7.4; assay type: physicochemical
Description: Batch 1830-013. Although UPLC confirmed the presence of PEH and the azine (FIG. 6A), no signals due to either species were detected in the NMR in CDCl3 (FIG. 6B).

[3] = LC-MS analysis of azine yellow precipitate (1830-014) after dissolution and storage; assay type: physicochemical
Method: Crystallization was performed on 3.6 g of the crude azine product for 1830-014 using the second method as described above for 1830-012 (FIG. 9). White (m=0.490 g) and yellow (m=1.473 g) precipitates were obtained. LC-MS analysis was also performed on the azine sample obtained as a yellow precipitate (1830-014), with chromatograms obtained directly after dissolution (FIG. 10A) and 27 hours after dissolution (FIG. 10B). The quantitative results are described in Table 12 and Table 13 below. According to the LC-MS analysis using % relative area corresponding to the appropriate MS peaks, the azine sample obtained as a yellow precipitate was 96.24% azine. 27 hours after dissolution, the sample was 91.77% azine. After one month of storage at −20° C. under Argon, the sample was 91.56% azine (data not shown).
(§1) LCMS Method. The LCMS analysis was performed on a Dionex UHPLC Ultimate 3000 with DAD detector/Thermo Scientific ISQ EC-Mass Spectrometer with a wavelength range of 190-350 nm±4 nm. Compounds were separated on a Kinetix® 2.6 μm XB—C18 (4.6×50 mm), 110 A, column no. 00B-4496-EO column using gradient elution with a column temperature of 25° C. at a flow of 1.0 mL/min. The elution scheme shown in Table 12 was used for chromatographic separation. Mobile phase C was 0.05% ammonium hydroxide in water (28.0-30.0% NH3 basis) and Mobile phase D was acetonitrile. The syringe washing solution was 20% MeOH. The MS conditions were a mass range of 100-1000 m/z and scan speed of 12 000 amu/sec.

[4] = LC-MS analysis of first preparative HPLC fraction in solution and after lyophilization; assay type: physicochemical
Method: See also FIG. 22A-C. […] Peak nos. […] Peak nos.
as §1, with “Compounds were separated on a Kinetix® 2.6 μm XB—C18 (4.6×50 mm), 110 A, column no. 00B-4496-EO column using gradient elution with a column temperature of 25° C. at a flow of 1.0 mL/min.” left out

[5] = Stability under acidic or basic UPLC conditions; assay type: physicochemical
Method: Batch 1830-001. […] The purity of the sample was 20%.
The peak at R.T.=1.70 min corresponds to the azine according to mass spectrometry (FIG. 13B, bottom panel), and the azine was present at 69% purity.
UPLC Method. The UPLC analysis was performed on a Waters ACQUITY UPLC I-Class PLUS System with a Waters SQ Detector 2 in the wavelength range of 200-400 nm. Compounds were separated on an Acquity UPLC BEH C18 1.7 μm/130 Å (2.1×100 mm) column using gradient elution with a column temperature of 40° C. at a flow of 0.5 mL/min. The elution scheme shown in Table 11 was used for chromatographic separation. Mobile phase A was 0.05% ammonium hydroxide in water (28.0-30.0% NH3 basis) and Mobile phase B was acetonitrile. The syringe washing solution was 50% ACN, 50% water. The MS conditions were a mass range of […] and scan time of 0.15 s.

[6] = 1H NMR stability of PEH sample 1830-011 over time and in different deuterated solvents; assay type: physicochemical
Method: ^1H NMR was employed to probe the stability of PEH sample 1830-011 both in terms of time after preparation and in different deuterated solvents. […] In Py-d6, about 10% of PEH was transformed to the azine. Additionally, a new sample from the obtained oil in sample 1830-011 in which the oil was prepared after 3 days storage in −20° C. under argon was prepared and measured directly in CDCl3. After 3 days, the contamination of PEH with azine was equal to 18% (the ratio of PEH:Azine was 82:18).

[7] = PEH stability tests by LCMS (batch 1830-023); assay type: physicochemical; conditions: stored at −80° C.
Method: See also FIG. 27, which illustrates the results from the stability tests of PEH. […] Compounds were separated on a Kinetix® 2.6 μm XB—C18 (4.6×50 mm), 110A, column no. 00B-4496-EO column using gradient elution with a column temperature of 25° C. at a flow of 1.0 mL/min. The elution scheme shown in Table 15 was used for chromatographic separation. Mobile phase C was 0.05% ammonium hydroxide in water (28.0-30.0% NH3 basis) and Mobile phase D was acetonitrile. The syringe washing solution was 20% MeOH. The MS conditions were a mass range of 100-1000 m/z and scan speed of 12 000 amu/sec.

[8] = PEH 1830-003B, NMR
[9] = biological target: T1, MAO-A (Homo sapiens, UniProt P21397); conditions: cited from earlier work
T1 sequence (P21397 1-527): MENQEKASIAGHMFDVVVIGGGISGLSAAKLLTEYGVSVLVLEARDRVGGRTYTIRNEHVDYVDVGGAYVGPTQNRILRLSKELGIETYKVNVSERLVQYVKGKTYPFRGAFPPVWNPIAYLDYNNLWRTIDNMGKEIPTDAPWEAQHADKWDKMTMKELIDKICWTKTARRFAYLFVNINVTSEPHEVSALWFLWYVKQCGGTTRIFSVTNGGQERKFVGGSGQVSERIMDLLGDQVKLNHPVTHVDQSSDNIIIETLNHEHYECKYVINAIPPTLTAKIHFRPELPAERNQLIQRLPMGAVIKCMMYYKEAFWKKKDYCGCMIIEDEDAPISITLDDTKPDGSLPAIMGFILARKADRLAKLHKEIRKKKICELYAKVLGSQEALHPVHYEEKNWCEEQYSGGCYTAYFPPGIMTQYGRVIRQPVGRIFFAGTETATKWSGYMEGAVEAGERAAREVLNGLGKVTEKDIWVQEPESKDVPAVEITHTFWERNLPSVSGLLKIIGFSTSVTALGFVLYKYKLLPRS

[10] = biological target: T2, MAO-B (Homo sapiens, UniProt P27338); conditions: cited from earlier work
T2 sequence (P27338 1-520): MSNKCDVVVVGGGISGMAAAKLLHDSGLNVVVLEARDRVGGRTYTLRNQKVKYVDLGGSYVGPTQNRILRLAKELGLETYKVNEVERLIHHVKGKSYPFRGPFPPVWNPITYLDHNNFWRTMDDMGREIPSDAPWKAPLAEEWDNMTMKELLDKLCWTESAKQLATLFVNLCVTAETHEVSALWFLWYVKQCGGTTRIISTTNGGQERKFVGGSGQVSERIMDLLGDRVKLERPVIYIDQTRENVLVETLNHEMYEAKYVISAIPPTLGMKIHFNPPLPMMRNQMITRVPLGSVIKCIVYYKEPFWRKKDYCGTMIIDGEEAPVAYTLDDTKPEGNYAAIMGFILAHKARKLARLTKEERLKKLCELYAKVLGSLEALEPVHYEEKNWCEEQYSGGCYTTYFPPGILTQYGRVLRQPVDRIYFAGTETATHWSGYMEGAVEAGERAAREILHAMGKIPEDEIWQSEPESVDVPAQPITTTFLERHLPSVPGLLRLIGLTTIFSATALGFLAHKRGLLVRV

[11] = PEH 1830-011, first fraction after preparative HPLC and lyophilization

contamination of the azine with PEH [1]: 9%
pH stability ([2]; pH 9.2): stable at pH 9.2
% azine by LC-MS relative area ([3]; yellow precipitate 1830-014, 27 hours after dissolution): 91.77%
% azine by LC-MS relative area ([3]; yellow precipitate 1830-014, after one month of storage at −20° C. under Argon): 91.56%
% azine by LC-MS relative area ([3]; yellow precipitate 1830-014, directly after dissolution): 96.24%
stability during lyophilization ([4]; after preparative HPLC): remained stable after lyophilization
% azine by LC-MS relative area ([4]; azine 1830-015, first fraction after lyophilization): 99.93%
% azine by LC-MS relative area ([4]; azine 1830-015, first fraction after preparative HPLC, in solution): 99.61%
stability in acidic conditions (UPLC) ([5]; acidic conditions): not stable in acidic conditions
stability in basic conditions (UPLC) ([5]; basic conditions, sample 1830-001): stable in basic conditions
SMILES: C(/Cc1ccccc1)=N\N=C\Cc1ccccc1 [azine, (1E,2E)-1,2-bis(2-phenylethylidene)hydrazine]
pH stability ([2]; pH 7.4): undergoes rapid hydrolysis to the aldehyde

SMILES: NN=CCc1ccccc1 [PEH, phenylethylidenehydrazine]
contamination of PEH with azine ([6]; 1830-011 oil after 3 days storage in −20° C. under argon, new sample measured directly in CDCl3): 18%
PEH transformed to the azine ([6]; PEH sample 1830-011 in Py-d6): about 10%
pH stability ([2]; pH 7.4): the azine and the aldehyde are formed
pH stability ([2]; pH 9.2): stable at pH=9.2
stability during lyophilization [4]: undergoes decomposition during lyophilization
% PEH by LCMS [4, 11]: 12.70%
% azine in PEH sample by LCMS [4, 11]: 85.89%
% PEH by LCMS ([4]; PEH 1830-011, first fraction after preparative HPLC, solution, before lyophilization): 92.66%
% azine in PEH sample by LCMS ([4]; PEH 1830-011, first fraction in solution after preparative HPLC): 4.14%
Purity of PEH (summarized isomers), stability test ([7]; Extract (liq) in chloroform, after 1 day): 97.36
Purity of PEH (summarized isomers), stability test ([7]; Extract (liq) in chloroform, after 2 days): 97.86
Purity of PEH (summarized isomers), stability test ([7]; Extract (liq) in chloroform, after 3 days): 97.82
Purity of PEH (summarized isomers), stability test ([7]; Extract (liq) in chloroform, after 4 days): 97.65
Purity of PEH (summarized isomers), stability test ([7]; Extract (liq) in chloroform, after 7 days): 96.14
Purity of PEH (summarized isomers), stability test ([7]; Extract (liq) in chloroform, after reaction): 98.49
Purity of PEH (summarized isomers), stability test ([7]; solid (concentrated material), after 1 day): 68.46
Purity of PEH (summarized isomers), stability test ([7]; solid (concentrated material), after 2 days): 69.82
Purity of PEH (summarized isomers), stability test ([7]; solid (concentrated material), after 3 days): 64.26
Purity of PEH (summarized isomers), stability test ([7]; solid (concentrated material), after 4 days): 66.89
Purity of PEH (summarized isomers), stability test ([7]; solid (concentrated material), after 7 days): 67.38
Purity of PEH (summarized isomers), stability test ([7]; solid (concentrated material), after reaction): 81.17
level of azine impurity during drying ([8]; after drying for 15 min): 7%
level of azine impurity during drying ([8]; after drying for 3 hours): 22%
inhibition of MAO-A [9]: weak and transient inhibitor
inhibition of MAO-B [10]: weak and transient inhibitor

— US20250082589A1, “PHENYLETHYLIDENEHYDRAZINE DIMERS AND METHODS OF USING SAME” (NEURAWELL THERAPEUTICS, priority 2021, published 2025)
